Assay results as given in BindingDB's records for doi:10.1021/jm00078a018 (Merck Research Laboratories, 1994).

Test: Inhibition of binding of [125I]-CCK-8 to the cholecystokinin type B receptor

SMILES	IC50 [nM]
CN1C(=O)C(NC(=O)Nc2cccc(F)c2)N=C(c2ccccc2)c2ccccc21 (stereo not given) [1-(3-Fluoro-phenyl)-3-(1-methyl-2-oxo-5-phenyl-2,3-dihydro-1H-benzo[e][1,4]diazepin-3-yl)-urea]	54
CN1C(=O)C(NC(=O)Nc2cccc(Br)c2)N=C(c2ccccc2)c2ccccc21 (stereo not given) [1-(3-Bromo-phenyl)-3-(1-methyl-2-oxo-5-phenyl-2,3-dihydro-1H-benzo[e][1,4]diazepin-3-yl)-urea]	5
Cc1cccc(NC(=O)NC2N=C(c3ccccc3)c3ccccc3N(CCO)C2=O)c1 (stereo not given) [1-[1-(2-Hydroxy-ethyl)-2-oxo-5-phenyl-2,3-dihydro-1H-benzo[e][1,4]diazepin-3-yl]-3-m-tolyl-urea]	44
O=C(O)CN1C(=O)C(NC(=O)Nc2ccc(Cl)cc2)N=C(c2ccccc2)c2ccccc21 (stereo not given) [{3-[3-(4-Chloro-phenyl)-ureido]-2-oxo-5-phenyl-2,3-dihydro-benzo[e][1,4]diazepin-1-yl}-acetic acid]	72
CN1C(=O)C(NC(=O)Nc2ccc(Cl)cc2Cl)N=C(c2ccccc2)c2ccccc21 (stereo not given) [1-(2,4-Dichloro-phenyl)-3-(1-methyl-2-oxo-5-phenyl-2,3-dihydro-1H-benzo[e][1,4]diazepin-3-yl)-urea]	220
CN1C(=O)C(NC(=O)Nc2ccc(Cl)c(Cl)c2)N=C(c2ccccc2)c2ccccc21 (stereo not given) [1-(3,4-Dichloro-phenyl)-3-(1-methyl-2-oxo-5-phenyl-2,3-dihydro-1H-benzo[e][1,4]diazepin-3-yl)-urea]	67
CN1C(=O)[C@@H](NC(=O)c2ccc(C(F)(F)F)cc2)N=C(c2ccccc2)c2ccccc21	4600
COc1ccccc1NC(=O)NC1N=C(c2ccccc2)c2ccccc2N(C)C1=O (stereo not given) [1-(2-Methoxy-phenyl)-3-(1-methyl-2-oxo-5-phenyl-2,3-dihydro-1H-benzo[e][1,4]diazepin-3-yl)-urea]	1200
Cc1cccc(NC(=O)NC2N=C(c3ccccc3)c3ccccc3N(CCOC(=O)CCC(=O)O)C2=O)c1 (stereo not given) [Succinic acid mono-{2-[2-oxo-5-phenyl-3-(3-m-tolyl-ureido)-2,3-dihydro-benzo[e][1,4]diazepin-1-yl]-ethyl} ester]	7.2
O=C(CN1C(=O)C(NC(=O)Nc2ccc(Cl)cc2)N=C(c2ccccc2)c2ccccc21)NCc1ccccc1 (stereo not given) [N-Benzyl-2-{3-[3-(4-chloro-phenyl)-ureido]-2-oxo-5-phenyl-2,3-dihydro-benzo[e][1,4]diazepin-1-yl}-acetamide]	102
CN1C(=O)C(NC(=O)NC(C)(C)C)N=C(c2ccccc2)c2ccccc21 (stereo not given) [1-tert-Butyl-3-(1-methyl-2-oxo-5-phenyl-2,3-dihydro-1H-benzo[e][1,4]diazepin-3-yl)-urea]	38000
CN1C(=O)[C@H](NC(=O)Nc2ccccc2Cl)N=C(c2ccccc2)c2ccccc21	61
CN1C(=O)C(NC(=O)Nc2ccc3c(c2)CCC3)N=C(c2ccccc2)c2ccccc21 (stereo not given) [1-Indan-5-yl-3-(1-methyl-2-oxo-5-phenyl-2,3-dihydro-1H-benzo[e][1,4]diazepin-3-yl)-urea]	2.7
CN1C(=O)C(NC(=O)Nc2cccc(CNC(=O)OC(C)(C)C)c2)N=C(c2ccccc2)c2ccccc21 (stereo not given) [{3-[3-(1-Methyl-2-oxo-5-phenyl-2,3-dihydro-1H-benzo[e][1,4]diazepin-3-yl)-ureido]-benzyl}-carbamic acid tert-butyl ester]	170
CN1C(=O)[C@H](NC(=O)Nc2cccc(N)c2)N=C(c2ccccc2)c2ccccc21	33
Cc1cccc(NC(=O)NC2N=C(c3ccccc3)c3ccccc3N(CC(=O)ON3CCC[C@@H]3C(=O)O)C2=O)c1 (stereo not given in full) [1-{2-[2-Oxo-5-phenyl-3-(3-m-tolyl-ureido)-2,3-dihydro-benzo[e][1,4]diazepin-1-yl]-acetoxy}-pyrrolidine-2-carboxylic acid]	130
COc1cccc(NC(=O)N[C@H]2N=C(c3ccccc3)c3ccccc3N(C)C2=O)c1	300
CCN(CC)C(=O)CN1C(=O)C(NC(=O)Nc2ccc(Cl)cc2)N=C(c2ccccc2)c2ccccc21 (stereo not given) [2-{3-[3-(4-Chloro-phenyl)-ureido]-2-oxo-5-phenyl-2,3-dihydro-benzo[e][1,4]diazepin-1-yl}-N,N-diethyl-acetamide]	0.6
COc1cccc(NC(=O)NC2N=C(c3ccccc3)c3ccccc3N(C)C2=O)c1 (stereo not given) [1-(3-Methoxy-phenyl)-3-(1-methyl-2-oxo-5-phenyl-2,3-dihydro-1H-benzo[e][1,4]diazepin-3-yl)-urea]	3
COC(=O)c1cccc(NC(=O)N[C@@H]2N=C(c3ccccc3)c3ccccc3N(C)C2=O)c1 [3-[3-((R)-1-Methyl-2-oxo-5-phenyl-2,3-dihydro-1H-benzo[e][1,4]diazepin-3-yl)-ureido]-benzoic acid methyl ester]	8
CCN(CC)C(=O)CN1C(=O)C(NC(=O)Nc2cccc(OC)c2)N=C(c2ccccc2)c2ccccc21 (stereo not given) [N,N-Diethyl-2-{3-[3-(3-methoxy-phenyl)-ureido]-2-oxo-5-phenyl-2,3-dihydro-benzo[e][1,4]diazepin-1-yl}-acetamide]	0.22
O=C(Nc1ccc(Cl)cc1)NC1N=C(c2ccccc2)c2ccccc2N(CC(=O)OCc2ccccc2)C1=O (stereo not given) [{3-[3-(4-Chloro-phenyl)-ureido]-2-oxo-5-phenyl-2,3-dihydro-benzo[e][1,4]diazepin-1-yl}-acetic acid benzyl ester]	44
Cc1cccc(NC(=O)NC2N=C(c3ccccc3)c3cnccc3N(C)C2=O)c1 (stereo not given) [1-(1-Methyl-2-oxo-5-phenyl-2,3-dihydro-1H-pyrido[4,3-e][1,4]diazepin-3-yl)-3-m-tolyl-urea]	632
CN1C(=O)C(NC(=O)Nc2cccc([N+](=O)[O-])c2)N=C(c2ccccc2)c2ccccc21 (stereo not given) [1-(1-Methyl-2-oxo-5-phenyl-2,3-dihydro-1H-benzo[e][1,4]diazepin-3-yl)-3-(3-nitro-phenyl)-urea]	11
Cc1cccc(NC(=O)NC2N=C(c3ccccc3)c3ccccc3N(CCN(C)C)C2=O)c1 (stereo not given) [1-[1-(2-Dimethylamino-ethyl)-2-oxo-5-phenyl-2,3-dihydro-1H-benzo[e][1,4]diazepin-3-yl]-3-m-tolyl-urea]	26
CN1C(=O)C(NC(=O)Nc2ccc(Br)cc2)N=C(c2ccccc2)c2ccccc21 (stereo not given) [1-(4-Bromo-phenyl)-3-(1-methyl-2-oxo-5-phenyl-2,3-dihydro-1H-benzo[e][1,4]diazepin-3-yl)-urea]	48
CCOC(=O)CN1C(=O)C(NC(=O)c2ccccc2Cl)N=C(c2ccccc2F)c2ccccc21 (stereo not given) [[3-(2-Chloro-benzoylamino)-5-(2-fluoro-phenyl)-2-oxo-2,3-dihydro-benzo[e][1,4]diazepin-1-yl]-acetic acid ethyl ester]	3200
CN1C(=O)C(NC(=O)Nc2cccc(C#N)c2)N=C(c2ccccc2)c2ccccc21 (stereo not given) [1-(3-Cyano-phenyl)-3-(1-methyl-2-oxo-5-phenyl-2,3-dihydro-1H-benzo[e][1,4]diazepin-3-yl)-urea]	27
Cc1cccc(NC(=O)N[C@@H]2N=C(c3ccccc3)c3ccccc3NC2=O)c1	40
COc1cccc(NC(=O)NC2N=C(c3ccccc3)c3ccccc3N(CCN(C)C)C2=O)c1 (stereo not given) [1-[1-(2-Dimethylamino-ethyl)-2-oxo-5-phenyl-2,3-dihydro-1H-benzo[e][1,4]diazepin-3-yl]-3-(3-methoxy-phenyl)-urea]	192
